In PubChem BioAssay AID1996:
Converted amounts (≈) assume the structure as drawn.

settings: buffer; pH 7.4; 200.0 µM

Row | Structure (SMILES) | solubility kinetic [mg/mL]
1 | CC(=O)c1ccc(N2CCN(C(C)C(=O)Nc3ccc4c(c3)OCCO4)CC2)cc1 (configuration not stated) | 0.0051 (≈ 12.5 µM)
2 | Cc1oc(S(=O)(=O)N2CCCC2)cc1C(=O)Nc1ccc(F)cc1 | 0.0015 (≈ 4.26 µM)
3 | COc1ccc(C(C)=O)cc1COC(=O)C1CCN(C(=O)c2ccc(Cl)cc2)CC1 | 0.0335 (≈ 77.9 µM)
4 | CN(C(=O)c1ccc2nc(N)sc2c1)c1ccccc1 | 0.0408 (≈ 144 µM)
5 | Cc1cccc(C2=N/C(=C\c3cccs3)C(=O)O2)c1 | 0.004 (≈ 14.9 µM)
6 | CN(C)CCCNc1oc(-c2ccc(Cl)cc2)nc1S(=O)(=O)c1ccccc1 | > 0.063
7 | O=c1c([N+](=O)[O-])c(O)c2cccc3c2n1CCC3 | 0.0363 (≈ 147 µM)
8 | c1nc2ccc(Cc3ccc4nc[nH]c4c3)cc2[nH]1 | 0.0343 (≈ 138 µM)
9 | CNCc1ccccc1OCc1ccccc1F.Cl | > 0.0423
10 | CC(CCc1ccccc1)NC(=O)CCC(=O)N1CCC(C(=O)O)CC1 (configuration not stated) | > 0.0541
11 | COCC(C)N1C(=O)Cc2c1nc(N)c1c(N)nc(N3CCN(c4ccccc4F)CC3)c(C#N)c21 (configuration not stated) | 0.0017 (≈ 3.47 µM)
12 | Cc1ccc(SCc2nc3ncccn3c2Br)cc1 | > 0.0501
13 | Cc1ccccc1NC(=O)C(NC1CCCCC1)C(C)C (configuration not stated) | 0.0067 (≈ 23.2 µM)
14 | CN(C)C(CNC(=O)C1CCCN1C(=O)c1cccs1)c1ccccc1 (configuration not stated) | > 0.0557
15 | CCOc1ncccc1C(=O)OCc1cccc([N+](=O)[O-])c1 | 0.0005 (≈ 1.65 µM)
16 | COc1ccc(/C=C2\C(=O)NCC(=O)N2C)cc1 | 0.0114 (≈ 46.3 µM)
17 | COc1cc(CC(=O)N2CCN(S(=O)(=O)c3ccc(C)cc3)CC2)cc(OC)c1OC | > 0.0673
18 | COC(=O)c1[nH]c2c(c1C)C(=O)CC(c1ccc(OC)cc1)C2 (configuration not stated) | 0.0027 (≈ 8.62 µM)
19 | Cc1ccc(-c2nc3ncccc3o2)cc1NC(=O)c1ccc([N+](=O)[O-])o1 | 0.0017 (≈ 4.67 µM)

Row | Structure (SMILES) | solubility kinetic [mg/mL]
20 | CCNCc1ccc(OCc2cccs2)c(OCC)c1 | > 0.0437
21 | O=C(O)CC1S/C(=N/N=C/c2ccccn2)NC1=O (configuration not stated) | > 0.0417
22 | COc1ccccc1C(=O)N/C(=C\c1ccccc1)C(=O)NCc1ccco1 | > 0.0565
23 | CC(C)N1CCNCC1.Cl | 0.0231
24 | CCS(=O)(=O)N1CCC(C(=O)Nc2ccccc2OC)CC1 | 0.0433 (≈ 133 µM)
25 | O=C(NC1CC2CCCC(C1)N2C(=O)Nc1ccccc1)C1CC1 (configuration not stated) | 0.0042 (≈ 12.8 µM)
26 | O=C(Cn1cc(C(F)(F)F)ccc1=O)N/N=C/c1ccccc1 | > 0.0485
27 | O=C(COC(=O)c1ccco1)Nc1cc(S(=O)(=O)N2CCOCC2)ccc1Cl | 0.0164 (≈ 38.2 µM)
28 | C=CCn1c(O)c(C=NCCN2CCOCC2)c(=O)[nH]c1=S | > 0.0487
29 | Cc1cc(SCC(=O)Nc2ccc3[nH]c(=O)[nH]c3c2)nc2ccccc12 | 0.0029 (≈ 7.96 µM)
30 | COc1ccccc1OCCNC(=O)CC(NC(C)=O)c1ccccc1 (configuration not stated) | 0.0534 (≈ 150 µM)
31 | COc1ccc(-n2c(-c3ccc(C)cc3)nc3ccccc3c2=O)cc1 | < 0.0004
32 | COc1cccc(Nc2ccc(-n3ccnc3)nn2)c1 | > 0.0401
33 | COC(=O)[C@@H](NC(=O)/C=C/c1ccc(OC)cc1)C(C)C | > 0.0437
34 | COc1ccc(CCNC(=O)Oc2ccccc2)cc1OC | 0.0429 (≈ 142 µM)
35 | Cn1c(=O)c2c(nc(SCCN3CCOCC3)n2C)n(C)c1=O | > 0.0509
36 | Cc1ccc(N2C(=O)CCC2(C#N)c2ccccc2)cc1 (configuration not stated) | > 0.0415
37 | Cc1ccccc1-n1c(=O)n(Cc2ccccc2)c(=O)c2[nH]cnc21 | > 0.0499
38 | COc1ccc(CC(=O)NC(=S)Nc2cccc(C)c2)cc1 | 0.004 (≈ 12.7 µM)

Row | Structure (SMILES) | solubility kinetic [mg/mL]
39 | CC(CCc1ccccc1)NC(=O)c1ccc(F)cc1 (configuration not stated) | 0.0336 (≈ 124 µM)
40 | O=C(Nc1cccc(Cl)c1)Nc1cnccn1 | 0.0013 (≈ 5.23 µM)
41 | CS(=O)(=O)c1ccc(NCC2CCCO2)c([N+](=O)[O-])c1 (configuration not stated) | > 0.045
42 | Cc1nc(Cl)c(C(=O)NCc2ccccc2)c(C)c1Cl | 0.0356 (≈ 115 µM)
43 | COc1ccccc1NC(=S)NCc1ccc(F)cc1 | 0.034 (≈ 117 µM)
44 | O=S(=O)(Oc1ccccc1)c1cccnc1 | 0.0294 (≈ 125 µM)
45 | COc1ccc(CNC(=O)COC(=O)c2ccc(Br)c(S(=O)(=O)N3CCOCC3)c2)cc1 | 0.0342 (≈ 64.8 µM)
46 | Cc1cc(C)nc(SCC(=O)N2CCc3ccccc32)n1 | 0.0034 (≈ 11.4 µM)
47 | CCOC(=O)C1=C(C)N(C)C(=O)NC1c1ccc2c(c1)OCO2 (configuration not stated) | > 0.0477
48 | Cn1nccc1NC(=O)Nc1ccc(OC(F)(F)F)cc1 | > 0.045
49 | Cl.O=C(NCCCN1CCOCC1)c1cc(S(=O)(=O)N2CCOCC2)ccc1Cl | > 0.0703
50 | CCCc1nc2sc3c(=O)[nH]cnc3c2c2c1CCCC2 | 0.0004 (≈ 1.34 µM)
51 | COc1ccc(C(=O)NCCCOc2cccc(NC(C)=O)c2)cc1 | > 0.0514
52 | NC1=NC2(CCCC2)N=C(Nc2ccccc2)N1 | > 0.0365
53 | Cn1c(=O)c(C(=O)NCc2ccccc2)c(O)c2ccccc21 | < 0.0003
54 | COc1ccc(CCNC(=O)COC(=O)CCC(=O)c2cccs2)cc1OC | > 0.0608
55 | CSc1ncc(C(=O)Nc2cccc(Cl)c2C)c(C)n1 | 0.0188 (≈ 61.1 µM)
56 | Cn1c(=S)[nH]c2sc3c(c2c1=O)CCC(C(C)(C)C)C3 (configuration not stated) | < 0.0003
57 | Cl.O=S1(=O)CCC(NC2CCCC2)C1 (configuration not stated) | > 0.036
